Data: patent US9394303B2, “Small molecule inhibitors of MCL-1 and uses thereof” (priority 2014, dated 2016)
“Also recorded” adds a separate entry of the source. Like-named read-outs stand apart in the source and are kept apart here.

Assays:
Mcl-1 [1] = target: T1, Mcl-1 (Homo sapiens (Human), UniProt Q07820); details: for did not bind to Mcl-1 up to: highest concentration tested
[2] = test system: Eμ-myc lymphoma cells overexpressing Bcl-xL; experiment: Eμ-myc lymphoma cell killing; format: cell-based, mice; details: FIG. 9
From the text: (§1) The specificity and selectivity of this class Mcl-1 inhibitors was further confirmed by using cell lines developed by retroviral transduction of lymphoma cells isolated from Eμ-myc transgenic mice which survival depends on the expression of individual prosurvival protein (see, e.g., Whitecross K F, Alsop A E, Cluse L A, Wiegmans A, Banks K M, et al. 2009. […].

[3] = test system: Eμ-myc lymphoma cells overexpressing Bcl-2; experiment: Eμ-myc lymphoma cell killing; format: cell-based, mice; details: FIG. 9
From the text: as §1

[4] = test system: Eμ-myc lymphomas overexpressing Mcl-1; experiment: Eμ-myc lymphoma cell killing; format: cell-based, mice; details: FIG. 9
From the text: as §1

Bcl-xL = Bcl-xL (Homo sapiens (Human), UniProt Q07817, DEL45-85); experiment: Fluorescence polarization-based competitive binding assay (FAM-BID tracer); details: for Ki: Table 2, tested up to 20 μM, read-out: Bcl-XL Ki ± SD
Chain of Bcl-xL (Q07817 with tags, fused parts or gaps DEL45-85): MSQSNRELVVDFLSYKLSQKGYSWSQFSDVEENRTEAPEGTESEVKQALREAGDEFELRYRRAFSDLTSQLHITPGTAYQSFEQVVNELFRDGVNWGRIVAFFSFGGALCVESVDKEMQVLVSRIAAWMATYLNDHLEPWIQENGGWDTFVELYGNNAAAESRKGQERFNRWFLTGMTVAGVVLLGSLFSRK

Bcl-2 = Bcl-2 (Homo sapiens, UniProt P10415); experiment: as above
Chain of Bcl-2 (P10415 whole entry, looked up): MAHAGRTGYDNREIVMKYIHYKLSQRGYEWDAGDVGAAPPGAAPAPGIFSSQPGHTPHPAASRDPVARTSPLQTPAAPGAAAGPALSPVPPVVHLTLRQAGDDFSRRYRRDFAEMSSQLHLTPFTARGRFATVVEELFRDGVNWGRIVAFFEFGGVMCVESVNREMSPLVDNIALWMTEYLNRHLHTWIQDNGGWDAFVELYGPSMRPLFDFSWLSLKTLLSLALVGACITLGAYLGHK

Mcl-1 [5] = target: T1, Mcl-1; details: cited from earlier work
[6] = Table 2; tested up to 20 μM; read-out: Bcl-2 Ki ± SD
[7] = read-out: Bcl-2 Ki ± SD; Table 2; tested up to 20 μM

SMILES: Cc1nn(C)c2nc(-c3ccco3)cc(C(=O)O)c12 [Compound 3, 6-(Furan-2-yl)-1,3-dimethyl-1H-pyrazolo[3,4-b]pyridine-4-carboxylic acid]
- did not bind to Mcl-1 up to (Mcl-1 [1]): > 200 µM

SMILES: CC1(C)CCC(c2ccc(Cl)cc2)=C(CN2CCN(c3ccc(C(=O)NS(=O)(=O)c4ccc(N[C@H](CCN5CCOCC5)CSc5ccccc5)c(S(=O)(=O)C(F)(F)F)c4)cc3)CC2)C1 [ABT-263, reference compound]
- effect on Eμ-myc lymphoma cells dependent on Bcl-xL [2]: kills
- effect on Eμ-myc lymphoma cells dependent on Bcl-2 [3]: kills

SMILES: Cc1cc(Oc2ccc(Cn3nc(C)c4c(C(=O)O)cc(-c5ccco5)nc43)cc2)cc(C)c1Cl [Compound 57]
- effect on Eμ-myc lymphoma cells dependent on Bcl-xL [2]: did not show effect; also recorded: not affected
- effect on Eμ-myc lymphoma cells dependent on Bcl-2 [3]: did not show effect; also recorded: not affected
- effect on Eμ-myc lymphoma cells dependent on Mcl-1 [4]: led to sensitization; also recorded: selective killing
- Ki (Bcl-xL): > 5 µM
- no binding to Bcl-xL up to (Bcl-xL; highest concentration tested): > 20 µM
- Ki (Bcl-2; [6]): 1.95 ± 0.2 µM

SMILES: Cc1nn(Cc2ccccc2)c2nc(-c3ccco3)cc(C(=O)O)c12 [Compound 6, 1-Benzyl-6-(furan-2-yl)-3-methyl-1H-pyrazolo[3,4-b]pyridine-4-carboxylic acid]
- change in potency compared to 2 (Mcl-1 [1]; vs compound 2): slight increase in potency

SMILES: Cc1nn(Cc2ccc(Oc3ccccc3)cc2)c2nc(/C=C/c3ccccc3)cc(C(=O)O)c12 [Compound 16, (E)-3-methyl-1-(4-phenoxybenzyl)-6-styryl-1H-pyrazolo[3,4-b]pyridine-4-carboxylic acid]
- Ki (Bcl-xL): 3.55 ± 0.3 µM
- Ki (Bcl-2; [7]): 3.16 ± 1.03 µM

SMILES: CN(C)CC[C@H](CSc1ccccc1)Nc1ccc(S(=O)(=O)NC(=O)c2ccc(N3CCN(Cc4ccccc4-c4ccc(Cl)cc4)CC3)cc2)cc1[N+](=O)[O-] [ABT-737]
- binding to Mcl-1 (Mcl-1 [5]): fails to bind

SMILES: Cc1nn(Cc2ccc(Oc3cccc4ccccc34)cc2)c2nc(-c3ccco3)cc(C(=O)O)c12 [Compound 58]
- Ki (Bcl-xL): > 5 µM
- Ki (Bcl-2; [6]): > 4 µM

SMILES: Cc1nn(Cc2ccc(Oc3ccccc3)cc2)c2nc(-c3ccco3)cc(C(=O)O)c12 [Compound 8, 6-(Furan-2-yl)-3-methyl-1-(4-phenoxybenzyl)-1H-pyrazolo[3,4-b]pyridine-4-carboxylic acid]
- Ki (Bcl-2; [7]): > 4 µM

SMILES: Cc1cc(C(=O)O)c2c(C)nn(C)c2n1 [Compound 5, 1,3,6-Trimethyl-1H-pyrazolo[3,4-b]pyridine-4-carboxylic acid]
- did not bind to Mcl-1 up to (Mcl-1 [1]): > 200 µM
